In patent publication US6426317B1, “Stable, high available halogen 1,3,5-triazine-2,4,6-trione compositions having rapid dissolution rates” (Great Lakes Chemical Corporation, priority 1999, dated 2002):

Key:
[1] = Total chlorine in synthetic pool water exposed to environmental UV light (Example 7); assay type: physicochemical; set-up: unit not given here
[2] = NFPA scale from 1 to 4, NFPA 430, 1995 edition; cited from earlier work
[3] = in water at 20° C.; cited from earlier work
[4] = Off-gassing of roll-compacted granules contaminated with water (Examples 4-6); assay type: physicochemical; conditions: Table 9; Example 6
[5] = for effect of additive on off-gassing of trichloroisocyanuric acid: Example 1, 25.5% additive
[6] = Solubility (15-minute dissolution) of granules in balanced swimming pool water, thiosulfate titration; conditions: Table 9; Example 6
[7] = Off-gassing of granular formula compositions (Example 3); assay type: physicochemical; conditions: Example 3, granules
Experimental: The formula compositions produced in this example were tested for their stability and in some cases for their solubility. The components used included a dissolution aid: disodium cyanurate, and a disintegration agent: microcrystalline cellulose, Lattice® NT (FMC).
Again, blended powder samples were prepared for each formula composition. A 20-gram sample of each test formula composition was placed in a 2.0 inch diameter dye-punch set and compressed under 22 tons of force for 60 minutes using a Carver press. The compressed wafer was reduced to granules using a spatula and a mortar and pestle set. Properly sized granules were collected using a standard sieve shaker.
Approximately one gram of each granular formula composition sample was placed in an eight-ounce sample container. […] The containers were vapor sealed and carefully placed in an approximately 50° C. oven for 24 hours. After the sample set was removed from the oven and cooled, a one-ml aliquot from each sample was placed in 50 ml of deionized water and titrated with 0.100 N sodium thiosulfate. The volume of thiosulfate reagent used to titrate the available halogen in the KI solution was recorded.

With [Ca+2].[O-]Cl.[O-]Cl [Calcium hypochlorite, calcium hypochlorite] the “Total Cl” value ([1]; sampling time 0:00 (Hr:Min), 10 ppm available halogen added, outdoor UV light) was 0.02, the “Total Cl” value ([1]; sampling time 0:05) was 6.8 and the “Total Cl” value ([1]; sampling time 0:10) was 6.8. The “Total Cl” value ([1]; sampling time 0:15) was 7.2, the “Total Cl” value ([1]; sampling time 0:20) was 6.8 and the “Total Cl” value ([1]; sampling time 0:25) was 6.0. For the same molecule, the “Total Cl” value ([1]; sampling time 0:30) was 5.1, the “Total Cl” value ([1]; sampling time 0:40) was 5.0 and the “Total Cl” value ([1]; sampling time 0:50) was 3.3. For the same molecule, the “Total Cl” value ([1]; sampling time 1:00) was 3.5, the “Total Cl” value ([1]; sampling time 1:15) was 2.2 and the “Total Cl” value ([1]; sampling time 1:30) was 2.6. For the same molecule, the “Oxidizer Rating” value [2] was 3 and the Solubility [3] was “≅22^3 g/100g (%)”.

In the case of [Li+].[O-]Cl [Lithium hypochlorite], the “Oxidizer Rating” value [2] is listed as 2 and the Solubility [3] is listed as “≅43^3 g/100g (%)”.

In the case of O=c1[n-]c(=O)n(Cl)c(=O)n1Cl.[K+] [Potassium dichloroisocyanurate anhydrous, potassium dichloroisocyanurate], the “Oxidizer Rating” value [2] is listed as 3 and the Solubility [3] is listed as 5.0^4 g/100g (%).

In the case of O=c1nc([O-])n(Cl)c(=O)n1Cl.[Na+] [Sodium dichloroisocyanurate anhydrous, sodium dichloroisocyanurate], the “Oxidizer Rating” value [2] is listed as 3 and the Solubility [3] is listed as 12.5^4 g/100g (%).

In the case of O=c1n(Cl)c(=O)n(Cl)c(=O)n1Cl [Trichloroisocyanuric acid, 1,3,5-trichloro-1,3,5-triazine-2,4,6-trione], the “Off-Gassing Titrant Volume” value [4] is given as 2.00 mL, the “Titrant Volume (off-gassing)” value ([5]; Table 1, compressed powder wafer, 5 ml 15% KI, approximately 50° C., 24 hours, 0.100 N sodium thiosulfate) is given as 2.65 mL and the “Oxidizer Rating” value [2] is given as 1. For the same molecule, the Solubility [3] was 1.2^4 g/100g (%) and the “Solubility Titrant Volume” value [6] was 1.90 mL.

With OB(O)O [boric acid] the “effect of additive on off-gassing of trichloroisocyanuric acid” value [5] was “do not significantly affect the off-gassing profile of trichloroisocyanuric acid”.

With O=c1nc([O-])nc([O-])[nH]1.[Na+].[Na+] [disodium cyanurate, disodium salt of 1,3,5-triazine-2,4,6-trione] the “effect of additive on off-gassing” value [7] was “do not significantly affect the off-gassing profile”.

With O=C([O-])O.[Na+] [sodium bicarbonate] the “effect of additive on off-gassing of trichloroisocyanuric acid” value [5] was “increase gassing significantly”.
